In US20240109900A1, “AZABICYCLIC SHP2 INHIBITORS” (IRBM S.P.A., priority 2021, published 2024):
Like-named read-outs stand apart in the source and are kept apart here.

How the values were obtained:
[1] = target: SHP-2 enzyme (Met1-Leu525) (Homo sapiens (Human), UniProt Q06124); experiment: SHP2 inhibition enzymatic assay; type: biochemical; conditions: 0.5 nM SHP-2 activated by 500 nM IRS1 peptide, 75 μM DiFMUP substrate; read-out: SHP2wt-IC50
How it was run: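 Compounds were preincubated 30 min with 0.5 nM SHP-2 (Met1-Leu525) plus 500 nM IRS1 activating peptide (pH 7.2 HEPES, 5 mM DTT), then 75 μM DiFMUP substrate reacted 30 min at room temperature. After bpV quench, DiFMUP fluorescence gave % inhibition; four-parameter logistic fit yielded IC50.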

[2] = system: ERK phosphorylation in KYSE-520 cells; experiment: Phospho-ERK cellular assay; type: cell-based; conditions: KYSE-520 cells, 2 h at 37° C., phospho-ERK1/2 (Thr202/Tyr204) TR-FRET, read-out: PERK IC50
How it was run: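 TR-FRET read-out of ERK1/2 Thr202/Tyr204 phosphorylation was taken after overnight antibody incubation at room temperature. Before that, KYSE-520 cells were treated 2 h at 37 °C with compound dilutions and lysed 30 min. Percent inhibition relative to vehicle and cell-free wells was fitted four-parametrically to give IC50.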

SHP-2 enzyme (Met1-Leu525), sequence (Q06124 1-525): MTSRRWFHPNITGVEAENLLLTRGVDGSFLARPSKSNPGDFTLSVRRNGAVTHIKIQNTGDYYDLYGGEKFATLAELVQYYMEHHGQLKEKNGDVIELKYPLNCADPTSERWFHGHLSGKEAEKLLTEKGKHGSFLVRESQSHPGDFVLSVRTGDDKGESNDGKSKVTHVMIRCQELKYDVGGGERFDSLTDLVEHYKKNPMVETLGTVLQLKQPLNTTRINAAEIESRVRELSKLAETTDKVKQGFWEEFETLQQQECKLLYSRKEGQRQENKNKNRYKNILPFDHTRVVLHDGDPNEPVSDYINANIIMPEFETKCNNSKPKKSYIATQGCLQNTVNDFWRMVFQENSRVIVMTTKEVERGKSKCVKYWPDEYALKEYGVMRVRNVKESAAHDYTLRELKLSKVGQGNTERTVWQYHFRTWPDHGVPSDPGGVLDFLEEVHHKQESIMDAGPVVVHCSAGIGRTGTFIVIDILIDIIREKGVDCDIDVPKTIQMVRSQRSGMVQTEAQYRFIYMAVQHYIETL

| IC50 [1] [µM] | IC50 ([2]; Homo sapiens, KYSE-520, 2 h) [µM] | IC50 [2] [µM] | Structure (SMILES) | IC50 ([2]; Homo sapiens) [µM] |
| --- | --- | --- | --- | --- |
| < 0.5 | < 1 | – | Cc1nc2ccc(-c3n[nH]c4nc(N5CC[C@@H]6[C@H](C5)[C@@]6(CN)c5ccc(F)cn5)cnc34)c(Cl)c2s1 [Example 121, ((1S,6R,7S)-3-(3-(7-chloro-2-methylbenzo[d]thiazol-6-yl)-1H-pyrazolo[3,4-b]pyrazin-6-yl)-7-(5-fluoropyridin-2-yl)-3-azabicyclo[4.1.0]heptan-7-yl)methanamine] | – |
| < 0.5 | < 1 | – | CN1C(=O)C(F)(F)c2c1ccc(-c1n[nH]c3nc(N4CC[C@@H]5[C@H](C4)[C@@]5(CN)c4ccccc4F)cnc13)c2Cl [Example 362, 5-(6-((1S,6R,7R)-7-(aminomethyl)-7-(2-fluorophenyl)-3-azabicyclo[4.1.0]heptan-3-yl)-1H-pyrazolo[3,4-b]pyrazin-3-yl)-4-chloro-3,3-difluoro-1-methylindolin-2-one] | – |
| < 0.5 | < 1 | – | Cc1cc(C2(CN)C3CCN(c4cnc5c(-c6cccc(Cl)c6Cl)n[nH]c5n4)CC32)no1 (stereo not shown) [Example 8, (3-(3-(2,3-dichlorophenyl)-1H-pyrazolo[3,4-b]pyrazin-6-yl)-7-(5-methylisoxazol-3-yl)-3-azabicyclo[4.1.0]heptan-7-yl)methanamine] | – |
| < 0.5 | < 1 | – | NC[C@@]1(c2ccccc2F)C2CCN(c3ccc4nc(Sc5ccnc(N)c5Cl)ccc4n3)CC21 (stereo in doubt) [Example 387, 4-((6-((1R,6S,7S)-7-(aminomethyl)-7-(2-fluorophenyl)-3-azabicyclo[4.1.0]heptan-3-yl)-1,5-naphthyridin-2-yl)thio)-3-chloropyridin-2-amine] | – |
| < 0.5 | > 5 | – | NC[C@]1(c2ccccc2F)[C@@H]2CCN(c3nccn4c(-c5cccc(Cl)c5Cl)ncc34)C[C@@H]21 [Example 416, ((1S,6R,7R)-3-(3-(2,3-dichlorophenyl)imidazo[1,5-a]pyrazin-8-yl)-7-(2-fluorophenyl)-3-azabicyclo[4.1.0]heptan-7-yl)methanamine] | – |
| < 0.5 | < 1 | – | NC[C@]1(c2ccccc2F)[C@@H]2CCN(c3cnc4c(-c5ccc(C(N)=O)c6ncccc56)n[nH]c4n3)C[C@@H]21 [Example 220, 5-(6-((1S,6R,7R)-7-(aminomethyl)-7-(2-fluorophenyl)-3-azabicyclo[4.1.0]heptan-3-yl)-1H-pyrazolo[3,4-b]pyrazin-3-yl)quinoline-8-carboxamide] | – |
| < 0.5 | < 1 | – | NC[C@]1(c2ccccc2F)[C@@H]2CCN(c3cnc4c(-c5cc(F)c6ncccc6c5)n[nH]c4n3)C[C@@H]21 [Example 174, ((1S,6R,7R)-7-(2-fluorophenyl)-3-(3-(8-fluoroquinolin-6-yl)-1H-pyrazolo[3,4-b]pyrazin-6-yl)-3-azabicyclo[4.1.0]heptan-7-yl)methanamine] | – |
| < 0.5 | < 1 | – | COCc1ccc(-c2n[nH]c3nc(N4CC[C@@H]5[C@H](C4)[C@@]5(CN)c4cc(C)on4)cnc23)c2cccnc12 [Example 128, ((1S,6R,7S)-3-(3-(8-(methoxymethyl)quinolin-5-yl)-1H-pyrazolo[3,4-b]pyrazin-6-yl)-7-(5-methylisoxazol-3-yl)-3-azabicyclo[4.1.0]heptan-7-yl)methanamine] | – |
| 0.5 to 3 | < 1 | – | Cc1cc([C@@]2(CN)[C@@H]3CCN(c4cnc5c(-c6cc(F)cc7ncccc67)n[nH]c5n4)C[C@@H]32)no1 [Example 130, ((1S,6R,7S)-3-(3-(7-fluoroquinolin-5-yl)-1H-pyrazolo[3,4-b]pyrazin-6-yl)-7-(5-methylisoxazol-3-yl)-3-azabicyclo[4.1.0]heptan-7-yl)methanamine] | – |
| < 0.5 | < 1 | – | Cn1c(-c2n[nH]c3nc(N4CC[C@@H]5[C@H](C4)[C@@]5(CN)c4ccccc4F)cnc23)ccc(Cl)c1=O [Example 278, 6-(6-((1S,6R,7R)-7-(aminomethyl)-7-(2-fluorophenyl)-3-azabicyclo[4.1.0]heptan-3-yl)-1H-pyrazolo[3,4-b]pyrazin-3-yl)-3-chloro-1-methylpyridin-2(1H)-one] | – |
| < 0.5 | < 1 | – | Cc1conc1C1(CN)C2CCN(c3cnc4c(-c5cccc(Cl)c5Cl)n[nH]c4n3)CC21 (stereo not shown) [Example 14, (3-(3-(2,3-dichlorophenyl)-1H-pyrazolo[3,4-b]pyrazin-6-yl)-7-(4-methylisoxazol-3-yl)-3-azabicyclo[4.1.0]heptan-7-yl)methanamine] | – |
| < 0.5 | < 1 | – | COc1cccc2c(-c3n[nH]c4nc(N5CC[C@@H]6[C@H](C5)[C@@]6(CN)c5cc(C)on5)cnc34)ccnc12 [Example 125, ((1S,6R,7S)-3-(3-(8-methoxyquinolin-4-yl)-1H-pyrazolo[3,4-b]pyrazin-6-yl)-7-(5-methylisoxazol-3-yl)-3-azabicyclo[4.1.0]heptan-7-yl)methanamine] | – |
| < 0.5 | < 1 | – | Cn1ccc(-c2nccc(-c3n[nH]c4nc(N5CC[C@@H]6[C@H](C5)[C@@]6(CN)c5ccccc5F)cnc34)c2Cl)n1 [Example 265, ((1S,6R,7R)-3-(3-(3-chloro-2-(1-methyl-1H-pyrazol-3-yl)pyridin-4-yl)-1H-pyrazolo[3,4-b]pyrazin-6-yl)-7-(2-fluorophenyl)-3-azabicyclo[4.1.0]heptan-7-yl)methanamine] | – |
| < 0.5 | 1 to 5 | – | Cc1cc(C2(CN)C3CCN(c4nc5[nH]nc(Sc6ccnc(N)c6Cl)c5nc4CO)CC32)no1 (stereo not shown) [Example 57, (3-((2-amino-3-chloropyridin-4-yl)thio)-6-(7-(aminomethyl)-7-(5-methylisoxazol-3-yl)-3-azabicyclo[4.1.0]heptan-3-yl)-1H-pyrazolo[3,4-b]pyrazin-5-yl)methanol] | – |
| < 0.5 | – | < 1 | Cc1csc([C@@]2(CN)[C@@H]3CN(c4cnc5c(-c6ccc7ncn(C)c7c6Cl)n[nH]c5n4)C[C@@H]32)n1 [Example 483] | – |
| < 0.5 | < 1 | – | NCC1(c2ccccc2)C2CCN(c3cnc4c(-c5cccc(Cl)c5Cl)n[nH]c4n3)CC21 (stereo not shown) [Example 80, (3-(3-(2,3-dichlorophenyl)-1H-pyrazolo[3,4-b]pyrazin-6-yl)-7-phenyl-3-azabicyclo[4.1.0]heptan-7-yl)methanamine] | – |
| < 0.5 | < 1 | – | COCc1cc(C2(CN)C3CCN(c4cnc5c(-c6ccc7nn(C)cc7c6Cl)n[nH]c5n4)CC32)no1 (stereo not shown) [Example 47, (3-(3-(4-chloro-2-methyl-2H-indazol-5-yl)-1H-pyrazolo[3,4-b]pyrazin-6-yl)-7-(5-(methoxymethyl)isoxazol-3-yl)-3-azabicyclo[4.1.0]heptan-7-yl)methanamine] | – |
| < 0.5 | < 1 | – | Cc1cc([C@@]2(CN)[C@@H]3CCN(c4cnc5c(-c6ccc(C(F)F)c7ncccc67)n[nH]c5n4)C[C@@H]32)no1 [Example 133, ((1S,6R,7S)-3-(3-(8-(difluoromethyl)quinolin-5-yl)-1H-pyrazolo[3,4-b]pyrazin-6-yl)-7-(5-methylisoxazol-3-yl)-3-azabicyclo[4.1.0]heptan-7-yl)methanamine] | – |
| < 0.5 | < 1 | – | NC[C@]1(c2ccccc2F)[C@@H]2CCN(c3cnc4nc(Sc5ccnc(N)c5Cl)ccc4n3)C[C@@H]21 [Example 395, 4-((2-((1S,6R,7R)-7-(aminomethyl)-7-(2-fluorophenyl)-3-azabicyclo[4.1.0]heptan-3-yl)pyrido[2,3-b]pyrazin-6-yl)thio)-3-chloropyridin-2-amine] | – |
| < 0.5 | < 1 | – | Cn1cc2c(Cl)c(-c3c[nH]c4nc(N5CC[C@@H]6[C@H](C5)[C@@]6(CN)c5ccccc5F)n(C)c(=O)c34)ccc2n1 [Example 378, 2-((1S,6R,7R)-7-(aminomethyl)-7-(2-fluorophenyl)-3-azabicyclo[4.1.0]heptan-3-yl)-5-(4-chloro-2-methyl-2H-indazol-5-yl)-3-methyl-3,7-dihydro-4H-pyrrolo[2,3-d]pyrimidin-4-one] | – |
| < 0.5 | < 1 | – | COc1ccc(-c2n[nH]c3nc(N4CC[C@@H]5[C@H](C4)[C@@]5(CN)c4ccccc4F)cnc23)c2ccncc12 [Example 219, ((1S,6R,7R)-7-(2-fluorophenyl)-3-(3-(8-methoxyisoquinolin-5-yl)-1H-pyrazolo[3,4-b]pyrazin-6-yl)-3-azabicyclo[4.1.0]heptan-7-yl)methanamine] | – |
| < 0.5 | < 1 | – | COc1cccc(-c2n[nH]c3nc(N4CCC5C(C4)C5(CN)c4nc(C)cs4)cnc23)c1Cl (stereo not shown) [Example 87, (3-(3-(2-chloro-3-methoxyphenyl)-1H-pyrazolo[3,4-b]pyrazin-6-yl)-7-(4-methylthiazol-2-yl)-3-azabicyclo[4.1.0]heptan-7-yl)methanamine] | – |

| Structure (SMILES) | IC50 [1] [µM] | IC50 ([2]; Homo sapiens, KYSE-520, 2 h) [µM] | IC50 [2] [µM] | IC50 ([2]; Homo sapiens) [µM] |
| --- | --- | --- | --- | --- |
| NC[C@]1(c2ccccc2)[C@@H]2CN(c3cnc(Sc4cccnc4C(F)(F)F)c(N)n3)C[C@@H]21 [Example 104, 6-((1R,5S,6s)-6-(aminomethyl)-6-phenyl-3-azabicyclo[3.1.0]hexan-3-yl)-3-((2-(trifluoromethyl)pyridin-3-yl)thio)pyrazin-2-amine] | < 0.5 | – | – | > 5 |
